Experiments:
CYP 2D6 = CYP 2D6 (Homo sapiens, UniProt P10635); assay: CYP inhibition, 2D6; format: in vitro ADME
[1] = tested on: hyperactivity induced by amphetamine; assay: Amphetamine induced hyperactivity mouse model; format: in vivo; conditions: mice, salts of the compounds
Procedure: (§1) Five of the compounds listed in Table 2 were tested in an in vivo assay predictive of antipsychotic activity. Salts of these compounds where administered to mice having hyperactivity induced by amphetamine or MK-801 administration. The compounds were administered both subcutaneously (sc) and orally (po).

muscarinic M2 receptor = biological target: T1, muscarinic M2 receptor (Homo sapiens, UniProt P08172); assay: R-SAT functional screen, M2; format: cell-based; conditions: R-SAT; for Emax: read-out: M2 eff (efficacy); for EC50: read-out: M2 pEC50 (converted)
T1 construct: expressed in transfected cells
T1 sequence (P08172 1-466): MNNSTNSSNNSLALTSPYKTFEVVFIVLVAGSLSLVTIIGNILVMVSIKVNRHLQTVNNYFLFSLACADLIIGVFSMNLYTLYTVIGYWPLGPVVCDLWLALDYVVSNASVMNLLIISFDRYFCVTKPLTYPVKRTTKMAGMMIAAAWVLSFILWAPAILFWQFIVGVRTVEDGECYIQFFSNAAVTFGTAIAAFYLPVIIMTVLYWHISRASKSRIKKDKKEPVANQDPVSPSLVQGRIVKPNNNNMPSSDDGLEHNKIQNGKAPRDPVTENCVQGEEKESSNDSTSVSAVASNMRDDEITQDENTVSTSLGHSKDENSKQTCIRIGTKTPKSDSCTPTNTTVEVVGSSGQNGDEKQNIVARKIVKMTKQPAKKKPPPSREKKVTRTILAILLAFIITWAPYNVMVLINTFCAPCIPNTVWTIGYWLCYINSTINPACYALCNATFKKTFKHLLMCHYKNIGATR
How it was run: (§2)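 Receptor Selection and Amplification Technology (R-SAT) functional cell assay at M1, M2, M3 receptors. Values reported as efficacy (eff) and potency as pEC50.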

[2] = tested on: hyperactivity induced by MK-801; assay: MK-801 induced hyperactivity mouse model; format: in vivo; conditions: mice, salts of the compounds
Procedure: as §1

[3] = Human microsomal clearance; format: in vitro ADME; conditions: human microsomes
novel object recognition = assay: Novel object recognition (NOR) assay; format: in vivo; conditions: mice; for NOR - 60 minutes post training / NOR - 120 minutes post training: dose approx. ID75 in MK-801 hyperactivity assay
Procedure: Salts of the compounds were administered to mice at one hour post-training (a time-point at which animals normally behaviorally discriminate between novel and familiar objects) and two hours post-training (a time-point at which these animals normally no longer discriminate between objects). Doses were selected to correspond to the approximate ID75 value in the MK-801 hyperactivity assay.

hERG = hERG (Homo sapiens, UniProt Q12809); assay: hERG assay
muscarinic M1 receptor = biological target: T2, muscarinic M1 receptor (Homo sapiens, UniProt P11229); assay: R-SAT functional screen, M1; format: cell-based; conditions: R-SAT
T2 construct: expressed in transfected cells
T2 sequence (P11229 1-460): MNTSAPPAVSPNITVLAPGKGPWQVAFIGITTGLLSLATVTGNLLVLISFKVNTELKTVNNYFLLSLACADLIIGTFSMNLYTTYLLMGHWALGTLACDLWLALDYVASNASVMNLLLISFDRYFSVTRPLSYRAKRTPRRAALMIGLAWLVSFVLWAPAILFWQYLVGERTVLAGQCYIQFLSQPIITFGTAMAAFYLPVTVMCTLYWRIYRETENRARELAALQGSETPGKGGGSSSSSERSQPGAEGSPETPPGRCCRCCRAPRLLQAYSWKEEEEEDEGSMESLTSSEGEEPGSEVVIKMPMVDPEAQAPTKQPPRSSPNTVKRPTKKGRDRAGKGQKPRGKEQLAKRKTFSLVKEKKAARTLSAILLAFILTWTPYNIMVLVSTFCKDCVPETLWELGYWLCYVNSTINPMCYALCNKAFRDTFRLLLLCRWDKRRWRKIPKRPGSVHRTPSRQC
How it was run: as §2

5-HT2A receptor = 5-HT2A receptor (Homo sapiens, UniProt P28223); assay: Receptor profile, 5-HT2A inverse agonism; format: cell-based; conditions: negative log of the inhibitory IC50 (inverse agonism); read-out: 5-HT2A pIEC50 (converted)
CYP 1A2 = biological target: T3, CYP 1A2 (Homo sapiens, UniProt P05177); assay: CYP inhibition, 1A2; format: in vitro ADME
T3 sequence (P05177 1-516): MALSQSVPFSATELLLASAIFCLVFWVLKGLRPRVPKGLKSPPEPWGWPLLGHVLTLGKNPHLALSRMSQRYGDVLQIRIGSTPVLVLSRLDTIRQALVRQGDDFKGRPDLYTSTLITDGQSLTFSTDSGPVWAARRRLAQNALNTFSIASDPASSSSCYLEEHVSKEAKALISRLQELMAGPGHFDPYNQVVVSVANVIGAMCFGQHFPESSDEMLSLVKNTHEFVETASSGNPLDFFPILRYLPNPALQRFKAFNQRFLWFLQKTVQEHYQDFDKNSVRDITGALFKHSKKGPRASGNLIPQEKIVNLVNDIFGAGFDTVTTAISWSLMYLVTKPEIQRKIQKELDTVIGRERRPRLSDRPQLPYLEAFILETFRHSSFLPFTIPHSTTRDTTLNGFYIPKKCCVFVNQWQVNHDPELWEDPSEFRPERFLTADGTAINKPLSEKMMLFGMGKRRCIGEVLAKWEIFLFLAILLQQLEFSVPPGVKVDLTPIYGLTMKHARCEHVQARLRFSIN

M1 receptor = biological target: T4, M1 receptor (Homo sapiens, UniProt P11229); assay: Receptor profile, M1 agonist activity; conditions: for Emax: read-out: M1 intrinsic activity %
T4 sequence (P11229 1-460): T2 sequence (P11229 1-460)
Source text: (§3) Intrinsic activity was normalized to carbachol (M1) or pergolide (D2). For those ligands devoid of agonist activity, the values shown are pKi determined using [3H]raclopride.

muscarinic M3 receptor = biological target: T5, muscarinic M3 receptor (Homo sapiens, UniProt P20309); assay: R-SAT functional screen, M3; format: cell-based
T5 construct: expressed in transfected cells
Source text: The term “modulate” refers to the ability of a compound disclosed herein to alter the function of a muscarinic receptor. A modulator may activate the activity of a muscarinic receptor, may activate or inhibit the activity of a muscarinic receptor depending on the concentration of the compound exposed to the muscarinic receptor, or may inhibit the activity of a muscarinic receptor. The term “modulate” also refers to altering the function of a muscarinic receptor by increasing or decreasing the probability that a complex forms between a muscarinic receptor and a natural binding partner. A modulator may increase the probability that such a complex forms between the muscarinic receptor and the natural binding partner, may increase or decrease the probability that a complex forms between the muscarinic receptor and the natural binding partner depending on the concentration of the compound exposed to the muscarinic receptor, and or may decrease the probability that a complex forms between the muscarinic receptor and the natural binding partner. In some embodiments, modulation of the muscarinic receptor may be assessed using Receptor Selection and Amplification Technology (R-SAT) as described in U.S. Pat. No. 5,707,798, the disclosure of which is incorporated herein by reference in its entirety.
Several compounds disclosed herein were evaluated for activity at muscarinic receptors using Receptor Selection and Amplification Technology (R-SAT) as described in U.S. Pat. No. 5,707,798, the disclosure of which is incorporated herein by reference in its entirety. The efficacy (eff) and potency (expressed as pEC50) of these compounds are presented in Table 1 at M1, M2, and M3 receptors.

Ames mutagenesis assay = format: cell-based; conditions: to 10 μM (cytotoxicity precluded evaluation of all concentrations)
D2 receptor = D2 receptor (Homo sapiens, UniProt P14416); assay: Receptor profile, D2 agonist activity
Source text: as §3

CYP 2C19 = CYP 2C19 (Homo sapiens, UniProt P33261); assay: CYP inhibition, 2C19; format: in vitro ADME
Rat microsomal clearance = format: in vitro ADME; conditions: rat microsomes
CYP 3A4 = CYP 3A4 (Homo sapiens, UniProt P08684); assay: biochemical
Procedure: The compounds listed in Table 4 were profiled in a panel of in vitro assays for assessment of cardiovascular (hERG), drug-drug interaction (CYP inhibition), and mutagenic (Ames) liability. Microsomal stability was also determined by measuring both rat and human microsomal clearance.

CYP 2C9 = CYP 2C9 (Homo sapiens, UniProt P11712); assay: CYP inhibition, 2C9; format: in vitro ADME
Chain of CYP 2C9 (P11712 whole entry): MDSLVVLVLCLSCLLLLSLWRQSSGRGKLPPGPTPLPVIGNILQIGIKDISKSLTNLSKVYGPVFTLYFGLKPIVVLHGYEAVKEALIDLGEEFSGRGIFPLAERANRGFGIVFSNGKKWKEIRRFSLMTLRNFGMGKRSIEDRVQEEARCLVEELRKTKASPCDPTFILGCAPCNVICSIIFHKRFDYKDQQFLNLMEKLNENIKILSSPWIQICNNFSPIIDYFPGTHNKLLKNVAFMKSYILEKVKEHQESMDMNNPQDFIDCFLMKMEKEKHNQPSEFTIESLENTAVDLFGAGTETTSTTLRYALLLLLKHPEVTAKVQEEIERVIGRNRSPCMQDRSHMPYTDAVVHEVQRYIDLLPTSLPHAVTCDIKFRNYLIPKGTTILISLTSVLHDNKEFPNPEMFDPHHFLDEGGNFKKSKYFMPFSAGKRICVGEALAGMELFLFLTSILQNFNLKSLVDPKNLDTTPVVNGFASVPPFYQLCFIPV

Chain of D2 receptor (P14416 whole entry): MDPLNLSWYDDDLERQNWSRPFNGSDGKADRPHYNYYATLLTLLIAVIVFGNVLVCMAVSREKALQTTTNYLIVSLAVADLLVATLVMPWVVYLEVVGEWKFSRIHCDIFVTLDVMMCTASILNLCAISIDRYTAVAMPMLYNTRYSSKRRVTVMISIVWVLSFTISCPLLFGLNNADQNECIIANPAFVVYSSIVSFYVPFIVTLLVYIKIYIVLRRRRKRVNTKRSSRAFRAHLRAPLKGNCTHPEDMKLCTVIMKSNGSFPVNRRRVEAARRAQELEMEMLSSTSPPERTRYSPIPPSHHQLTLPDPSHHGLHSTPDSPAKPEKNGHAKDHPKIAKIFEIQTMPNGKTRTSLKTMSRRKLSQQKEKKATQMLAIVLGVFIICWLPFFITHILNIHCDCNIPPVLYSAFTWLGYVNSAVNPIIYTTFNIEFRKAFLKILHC
Chain of CYP 3A4 (P08684 whole entry): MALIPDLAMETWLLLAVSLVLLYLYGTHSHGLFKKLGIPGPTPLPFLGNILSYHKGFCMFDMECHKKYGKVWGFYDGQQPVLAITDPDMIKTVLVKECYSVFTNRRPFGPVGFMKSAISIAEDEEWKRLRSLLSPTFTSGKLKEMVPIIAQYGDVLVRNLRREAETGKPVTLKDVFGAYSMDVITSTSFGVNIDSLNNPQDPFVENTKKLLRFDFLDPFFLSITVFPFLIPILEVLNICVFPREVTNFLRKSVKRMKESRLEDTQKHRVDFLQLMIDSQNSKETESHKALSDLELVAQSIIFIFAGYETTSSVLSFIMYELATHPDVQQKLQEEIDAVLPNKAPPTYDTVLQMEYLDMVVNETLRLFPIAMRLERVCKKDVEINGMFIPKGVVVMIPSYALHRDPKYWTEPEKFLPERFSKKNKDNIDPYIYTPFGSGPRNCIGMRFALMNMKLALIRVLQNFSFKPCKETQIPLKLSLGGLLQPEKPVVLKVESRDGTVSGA
Chain of hERG (Q12809 whole entry): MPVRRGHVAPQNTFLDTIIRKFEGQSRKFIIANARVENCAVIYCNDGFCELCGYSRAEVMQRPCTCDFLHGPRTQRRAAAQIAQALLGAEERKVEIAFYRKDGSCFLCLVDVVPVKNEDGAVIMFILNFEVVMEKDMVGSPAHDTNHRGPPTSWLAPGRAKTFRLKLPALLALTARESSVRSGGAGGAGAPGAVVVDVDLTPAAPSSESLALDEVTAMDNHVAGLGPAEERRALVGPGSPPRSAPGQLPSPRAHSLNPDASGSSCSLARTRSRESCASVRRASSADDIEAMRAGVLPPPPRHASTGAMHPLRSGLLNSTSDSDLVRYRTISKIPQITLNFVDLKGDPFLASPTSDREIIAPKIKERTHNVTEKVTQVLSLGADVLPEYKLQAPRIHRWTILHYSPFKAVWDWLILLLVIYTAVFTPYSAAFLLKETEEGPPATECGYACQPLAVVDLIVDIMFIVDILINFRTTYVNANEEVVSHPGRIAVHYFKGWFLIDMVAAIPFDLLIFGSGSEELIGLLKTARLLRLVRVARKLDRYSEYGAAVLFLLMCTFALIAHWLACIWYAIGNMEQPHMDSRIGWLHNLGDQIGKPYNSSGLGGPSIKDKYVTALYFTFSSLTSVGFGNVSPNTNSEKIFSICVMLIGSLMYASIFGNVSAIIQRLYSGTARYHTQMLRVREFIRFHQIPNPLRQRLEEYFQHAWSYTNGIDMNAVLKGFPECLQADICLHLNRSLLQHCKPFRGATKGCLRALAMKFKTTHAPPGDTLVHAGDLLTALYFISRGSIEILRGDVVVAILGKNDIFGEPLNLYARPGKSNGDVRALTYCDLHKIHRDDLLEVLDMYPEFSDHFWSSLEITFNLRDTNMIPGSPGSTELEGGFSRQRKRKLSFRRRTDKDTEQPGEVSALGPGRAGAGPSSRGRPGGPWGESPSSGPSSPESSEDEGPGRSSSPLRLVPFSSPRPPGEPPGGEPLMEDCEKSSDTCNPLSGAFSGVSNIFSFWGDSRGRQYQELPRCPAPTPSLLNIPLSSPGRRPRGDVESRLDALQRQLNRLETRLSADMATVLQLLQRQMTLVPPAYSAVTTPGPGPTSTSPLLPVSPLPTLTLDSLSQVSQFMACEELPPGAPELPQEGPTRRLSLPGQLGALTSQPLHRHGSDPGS
Chain of 5-HT2A receptor (P28223 whole entry): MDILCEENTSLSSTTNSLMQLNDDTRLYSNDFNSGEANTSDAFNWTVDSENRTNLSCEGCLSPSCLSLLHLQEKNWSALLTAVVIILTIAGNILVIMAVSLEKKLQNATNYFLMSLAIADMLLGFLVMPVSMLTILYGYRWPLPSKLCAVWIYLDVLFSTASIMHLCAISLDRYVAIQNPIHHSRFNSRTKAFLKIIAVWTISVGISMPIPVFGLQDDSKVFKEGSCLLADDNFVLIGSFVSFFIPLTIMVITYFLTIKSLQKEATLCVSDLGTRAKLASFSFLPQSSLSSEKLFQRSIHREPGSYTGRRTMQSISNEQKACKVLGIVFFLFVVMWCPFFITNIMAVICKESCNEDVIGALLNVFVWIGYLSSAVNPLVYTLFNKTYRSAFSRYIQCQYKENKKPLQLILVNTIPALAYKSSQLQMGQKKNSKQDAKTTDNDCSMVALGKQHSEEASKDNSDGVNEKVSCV
Chain of CYP 2D6 (P10635 whole entry): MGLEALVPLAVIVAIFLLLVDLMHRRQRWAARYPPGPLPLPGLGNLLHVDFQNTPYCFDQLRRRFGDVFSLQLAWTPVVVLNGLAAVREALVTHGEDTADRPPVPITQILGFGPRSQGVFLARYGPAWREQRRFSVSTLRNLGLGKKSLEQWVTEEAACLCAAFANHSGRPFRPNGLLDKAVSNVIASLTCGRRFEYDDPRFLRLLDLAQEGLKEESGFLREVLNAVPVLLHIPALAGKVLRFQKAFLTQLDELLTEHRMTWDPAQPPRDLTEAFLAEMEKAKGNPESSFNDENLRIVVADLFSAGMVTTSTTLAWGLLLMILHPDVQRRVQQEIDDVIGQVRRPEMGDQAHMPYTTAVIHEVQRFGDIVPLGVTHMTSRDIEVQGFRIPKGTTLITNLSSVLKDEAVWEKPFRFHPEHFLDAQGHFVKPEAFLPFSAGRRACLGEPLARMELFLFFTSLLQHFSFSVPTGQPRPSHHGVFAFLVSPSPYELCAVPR
Chain of CYP 2C19 (P33261 whole entry): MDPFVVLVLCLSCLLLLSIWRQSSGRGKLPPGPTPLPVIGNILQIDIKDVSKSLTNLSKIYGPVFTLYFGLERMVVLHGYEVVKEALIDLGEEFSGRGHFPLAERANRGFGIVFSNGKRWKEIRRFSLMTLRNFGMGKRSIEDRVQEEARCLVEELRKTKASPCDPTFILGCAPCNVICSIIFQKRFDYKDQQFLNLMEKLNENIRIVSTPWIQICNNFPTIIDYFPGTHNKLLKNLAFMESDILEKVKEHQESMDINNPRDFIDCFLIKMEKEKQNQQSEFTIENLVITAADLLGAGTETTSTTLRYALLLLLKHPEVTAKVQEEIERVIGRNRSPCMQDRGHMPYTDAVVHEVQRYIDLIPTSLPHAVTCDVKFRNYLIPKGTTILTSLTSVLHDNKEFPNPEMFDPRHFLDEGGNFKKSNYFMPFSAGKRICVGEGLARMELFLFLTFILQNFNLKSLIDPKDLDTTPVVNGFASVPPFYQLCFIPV
T5 sequence (P20309 whole entry): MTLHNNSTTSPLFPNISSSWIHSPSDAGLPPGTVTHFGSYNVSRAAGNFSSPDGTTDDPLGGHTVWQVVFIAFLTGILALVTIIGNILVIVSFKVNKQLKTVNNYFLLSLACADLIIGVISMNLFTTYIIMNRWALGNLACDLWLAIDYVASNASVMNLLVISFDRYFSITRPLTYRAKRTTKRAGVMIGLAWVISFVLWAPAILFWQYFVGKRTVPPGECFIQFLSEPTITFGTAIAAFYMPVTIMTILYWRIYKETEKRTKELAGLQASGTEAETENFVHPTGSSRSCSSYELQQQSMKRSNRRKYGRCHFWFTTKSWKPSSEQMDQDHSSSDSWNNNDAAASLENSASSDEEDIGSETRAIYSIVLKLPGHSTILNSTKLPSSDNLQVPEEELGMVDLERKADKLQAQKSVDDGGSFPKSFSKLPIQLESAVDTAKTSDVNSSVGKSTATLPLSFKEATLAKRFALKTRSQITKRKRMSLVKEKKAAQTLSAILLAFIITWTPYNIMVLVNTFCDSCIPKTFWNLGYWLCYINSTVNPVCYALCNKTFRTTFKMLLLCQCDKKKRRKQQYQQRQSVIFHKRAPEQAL

Compound	IC50 (CYP 2D6) [nM]	Amphetamine model (ID50 mg/kg po) [1] [mg/kg]	Amphetamine model (ID50 mg/kg sc) [1] [mg/kg]	Emax (muscarinic M2 receptor) [%]	EC50 (muscarinic M2 receptor) [nM]	MK-801 model (ID50 mg/kg sc) [2] [mg/kg]	microsomal CLint [3] [µL/min/mg]	NOR Interpretation (novel object recognition)	NOR - 60 minutes post training (novel object recognition)	NOR - 120 minutes post training (novel object recognition)	IC50 (hERG) [nM]	IC50 (5-HT2A receptor) [nM]	IC50 (CYP 1A2) [nM]	EC50 (M1 receptor) [nM]	Emax (M1 receptor) [%]	Ames (Ames mutagenesis assay)	IC50 (CYP 2C19) [nM]	microsomal CLint (Rat microsomal clearance) [µL/min/mg]	IC50 (CYP 3A4) [nM]	IC50 (CYP 2C9) [nM]	further results
CN1c2ccc(Cl)cc2N=C(N2CCNCC2)c2ccccc21 [8-Chloro-5-methyl-11-(piperazin-1-yl)-5H-dibenzo[b,e][1,4]diazepine]	> 10000	>10	6.0	138	1260	1.5	23	no effect	retained	not retained	1300	> 10000	> 10000	79.4	65	Neg.	> 10000	1090	400	> 10000	Emax (muscarinic M1 receptor; read-out: M1 eff (efficacy)): 65%; EC50 (muscarinic M1 receptor; read-out: M1 pEC50 (converted)): 79.4 nM; M3 eff (efficacy) (muscarinic M3 receptor): 14; EC50 (D2 receptor): 15.8 nM; Emax (D2 receptor; read-out: D2 intrinsic activity %): 29%
Cc1cccc2c1Oc1ccc(F)cc1N=C2N1CCNCC1 [8-Fluoro-4-methyl-11-(piperazin-1-yl)-dibenzo[b,f][1,4]oxazepine]	> 25000	2.8	3.3	50	1580	1.4	13	procognitive	retained	retained	2300	126	1000	126	56	Neg.	> 25000	247	~1500	> 25000	MK-801 model (ID50 mg/kg po) ([2]; po): 0.6 mg/kg; D2 intrinsic activity, in words (D2 receptor; devoid of agonist activity): antagonist
